According to ChEMBL document CHEMBL2396533, “Γ-aminobutyric acid(C) (GABAC) selective antagonists derived from the bioisosteric modification of 4-aminocyclopent-1-enecarboxylic acid: amides and hydroxamates” (J Med Chem, 2013):
The source made the active and inactive calls. No cut-off for these calls is given here.

Assays:
[1] = target: T1, Gamma-aminobutyric acid receptor subunit rho-1 (Homo sapiens, UniProt P24046); experiment: Antagonist activity at human recombinant GABAA rho1 receptor expressed in Xenopus laevis assessed as inhibition of GABA-induced chloride current production after 2 to 5 days by two-electrode voltage-clamp electrophysiological assay
T1 sequence (P24046 whole entry): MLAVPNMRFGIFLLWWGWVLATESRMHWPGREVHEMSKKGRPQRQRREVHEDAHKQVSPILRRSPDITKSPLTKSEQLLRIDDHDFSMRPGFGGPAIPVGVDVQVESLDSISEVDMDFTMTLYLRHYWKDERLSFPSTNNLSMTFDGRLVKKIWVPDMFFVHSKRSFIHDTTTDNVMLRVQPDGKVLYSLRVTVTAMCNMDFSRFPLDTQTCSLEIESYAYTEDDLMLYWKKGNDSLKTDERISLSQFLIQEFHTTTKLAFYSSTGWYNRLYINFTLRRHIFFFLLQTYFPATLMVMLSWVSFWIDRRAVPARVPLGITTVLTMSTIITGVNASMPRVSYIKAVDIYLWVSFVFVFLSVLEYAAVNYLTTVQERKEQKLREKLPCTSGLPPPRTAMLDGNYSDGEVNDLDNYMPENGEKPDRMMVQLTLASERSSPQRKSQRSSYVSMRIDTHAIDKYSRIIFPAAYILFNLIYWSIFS

[2] = target: T2, GABA-A receptor; alpha-1/beta-2/gamma-2 (Homo sapiens) (UniProt P14867+P47870+P18507); experiment: Agonist activity at human recombinant GABAAalpha1beta2gamma2L receptor expressed in Xenopus laevis assessed as induction of chloride current production at 300 uM after 2 to 5 days by two-electrode voltage-clamp electrophysiological assay relative to GABA
[3] = target: T2, GABA-A receptor; alpha-1/beta-2/gamma-2 (Homo sapiens); experiment: Antagonist activity at human recombinant GABAAalpha1beta2gamma2L receptor expressed in Xenopus laevis assessed as inhibition of GABA-induced chloride current production at 300 uM after 2 to 5 days by two-electrode voltage-clamp electrophysiological assay relative to control
[4] = target: T1, Gamma-aminobutyric acid receptor subunit rho-1; experiment: Antagonist activity at human recombinant GABAA rho1 receptor expressed in Xenopus laevis assessed as inhibition of GABA-induced chloride current production at 300 uM after 2 to 5 days by two-electrode voltage-clamp electrophysiological assay relative to control

SMILES | IC50 [1] | Activity [2] | inhibition [3] | inhibition [4]
CNC(=O)C1=CCC(N)C1 (racemic) | 408 µM | inactive | inactive | –
CCCNC(=O)C1=CCC(N)C1 (racemic) | 570 µM | inactive | inactive | –
CCONC(=O)C1=CCC(N)C1 (racemic) | 153 µM | 2.5% | – | –
CCCCCNC(=O)C1=CCC(N)C1 (racemic) | – | inactive | inactive | 20.5%
Cc1ccc(NC(=O)C2=CCC(N)C2)cc1 (racemic) | – | inactive | inactive | 11.3%

Continued, values first:

IC50 [1] | Activity [2] | inhibition [3] | inhibition [4] | SMILES
115 µM | 1.7% | – | – | C=CCONC(=O)C1=CCC(N)C1 (racemic)
9.6 µM | – | 23.3% | – | NC(=O)C1=CCC(N)C1 (racemic)
12.9 µM | 4.3% | – | – | NC1CC=C(C(=O)NO)C1 (racemic)
6.6 µM | 59.7% | – | – | NC1CC=C(C(=O)O)C1 (racemic)
81.5 µM | 6.3% | – | – | CONC(=O)C1=CCC(N)C1 (racemic)
